Where two headings read alike, the source gives them in different places.
What was measured:
[1] = target: T1, androgen receptor (AR) (Homo sapiens, UniProt P10275, T878A); assay: Degradation activity on androgen receptor in LNCaP cells (AR ELISA); assay type: cell-based; conditions: for Dmax: read-out: Max (maximum AR degradation rate)
T1 construct: host or cells: LNCaP human prostate cancer cells
T1 sequence (P10275 1-920 T878A): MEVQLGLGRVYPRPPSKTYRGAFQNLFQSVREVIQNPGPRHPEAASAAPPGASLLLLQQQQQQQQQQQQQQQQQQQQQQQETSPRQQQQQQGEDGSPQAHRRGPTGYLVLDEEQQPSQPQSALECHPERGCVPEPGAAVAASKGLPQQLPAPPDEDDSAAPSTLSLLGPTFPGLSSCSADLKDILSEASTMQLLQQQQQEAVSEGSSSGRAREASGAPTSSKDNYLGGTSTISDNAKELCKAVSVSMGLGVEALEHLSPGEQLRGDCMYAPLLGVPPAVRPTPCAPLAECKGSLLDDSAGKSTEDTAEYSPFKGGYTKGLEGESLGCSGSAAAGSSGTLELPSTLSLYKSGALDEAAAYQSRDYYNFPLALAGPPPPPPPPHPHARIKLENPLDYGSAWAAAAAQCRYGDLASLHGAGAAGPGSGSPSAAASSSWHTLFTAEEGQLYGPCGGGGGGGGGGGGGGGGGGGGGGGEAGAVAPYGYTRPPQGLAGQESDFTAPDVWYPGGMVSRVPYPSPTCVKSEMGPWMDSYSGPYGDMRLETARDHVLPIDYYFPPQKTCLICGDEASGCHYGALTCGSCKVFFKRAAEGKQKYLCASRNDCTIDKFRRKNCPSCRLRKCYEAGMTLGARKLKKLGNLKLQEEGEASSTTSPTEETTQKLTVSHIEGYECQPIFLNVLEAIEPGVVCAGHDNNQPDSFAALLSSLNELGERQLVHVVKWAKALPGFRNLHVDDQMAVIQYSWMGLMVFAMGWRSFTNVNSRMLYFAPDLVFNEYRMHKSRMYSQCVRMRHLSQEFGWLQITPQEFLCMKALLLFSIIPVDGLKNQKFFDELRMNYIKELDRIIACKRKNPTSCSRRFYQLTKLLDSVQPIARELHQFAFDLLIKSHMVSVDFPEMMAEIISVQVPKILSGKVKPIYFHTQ
Description: The plate was incubated in a 37° C., 5% CO2 cell incubator for three days. […] A blank control cell well containing 0.5% DMSO was set up. The plate was incubated in a 37° C., 5% CO2 cell incubator for 24 hours. […] The lysate was well mixed by pipetting up and down and then centrifuged at 4000 rpm at 4° C. for 10 minutes. […] The plate was sealed and incubated in a 37° C. incubator for 1 hour. […] The plate was sealed and then incubated in a 37° C. incubator for 30 minutes.

[2] = test system: LNCaP cells; assay: Inhibition of LNCaP proliferation (CellTiter-Glo); assay type: cell-based; conditions: Homo sapiens, 144 h, 0.1 nM R1881, six days; for Emax: read-out: Max (maximum proliferation inhibition rate)
Description: The plate was incubated in a 37° C., 5% CO2 cell incubator for three days. […] A blank control cell well containing 0.5% DMSO and a cell-free vehicle control well were set up. The plate was incubated in a 37° C., 5% CO2 cell incubator for six days.

[3] = 0.1 nM R1881, 24 hours, read-out: LNCaP DC50
[4] = read-out: LNCaP DC50, 0.1 nM R1881, 24 hours

Compound	DC50 [1, 3]	Dmax ([1]; 0.1 nM R1881, 24 hours)	IC50 [2]	Emax [2]	DC50 [1, 4]
C[C@H]1CC2(CCN(c3ccc(C(=O)N4CC(CN5CCN(c6cccc(NC7CCC(=O)NC7=O)c6)CC5)C4)nn3)CC2)CN1c1ccc(C#N)c(Cl)c1 (stereo partly drawn) [Example 22, 2-Chloro-4-((3S)-8-(6-(3-((4-(3-((2,6-dioxopiperidin-3-yl)amino)phenyl)piperazin-1-yl)methyl)azetidine-1-carbonyl)pyridazin-3-yl)-3-methyl-2,8-diazaspiro[4.5]decan-2-yl)benzonitrile]	0.4 nM	97%			
C[C@H]1CC2(CCN(c3ccc(C(=O)N4CCC5(CC4)CC(N4CCN(c6cccc(NC7CCC(=O)NC7=O)c6)CC4)C5)cc3F)CC2)CN1c1ccc(C#N)c(Cl)c1 (stereo partly drawn) [Example 36, 2-Chloro-4-((3S)-8-(4-(2-(4-(3-((2,6-dioxopiperidin-3-yl)amino)phenyl)piperazin-1-yl)-7-azaspiro[3.5]nonane-7-carbonyl)-2-fluorophenyl)-3-methyl-2,8-diazaspiro[4.5]decan-2-yl)benzonitrile]	5.3 nM	97%	35 nM	57%	
C[C@H]1CC2(CCN(c3ccc(C(=O)N4CCC(CN5CCC(N6CCN(c7ccc(N8CCC(=O)NC8=O)cc7)CC6)CC5)CC4)cc3)CC2)CN1c1ccc(C#N)c(Cl)c1 [Example 9, (S)-2-Chloro-4-(8-(4-(4-((4-(4-(4-(2,4-dioxotetrahydropyrimidin-1(2H)-yl)phenyl)piperazin-1-yl)piperidin-1-yl)methyl)piperidine-1-carbonyl)phenyl)-3-methyl-2,8-diazaspiro[4.5]decan-2-yl)benzonitrile]	12.9 nM	92%	69 nM	59%	
C[C@H]1CC2(CCN(c3ccc(C(=O)N4CCC(N5CCC(N6CCN(c7ccc(N8CCC(=O)NC8=O)cc7)CC6)CC5)CC4)cc3)CC2)CN1c1ccc(C#N)c(Cl)c1 [Example 6, (S)-2-Chloro-4-(8-(4-(4-(4-(4-(2,4-dioxotetrahydropyrimidin-1(2H)-yl)phenyl)piperazin-1-yl)-[1,4′-bipiperidine]-1′-carbonyl)phenyl)-3-methyl-2,8-diazaspiro[4.5]decan-2-yl)benzonitrile]	5.7 nM	86%	24.6 nM	50%	
C[C@H]1CC2(CCN(c3ccc(C(=O)N4CCC(CN5CCN(c6ccc(NC7CCC(=O)NC7=O)cc6)CC5)CC4)cc3)CC2)CN1c1ccc(C#N)c(Cl)c1 (stereo partly drawn) [Example 25, 2-Chloro-4-((3S)-8-(4-(4-((4-(4-((2,6-dioxopiperidin-3-yl)amino)phenyl)piperazin-1-yl)methyl)piperidine-1-carbonyl)phenyl)-3-methyl-2,8-diazaspiro[4.5]decan-2-yl)benzonitrile]	1.8 nM	96%	24 nM	60%	
C[C@H]1CC2(CCN(c3ccc(C(=O)N4CC(CN5CCC(c6cccc(NC7CCC(=O)NC7=O)c6)CC5)C4)nn3)CC2)CN1c1ccc(C#N)c(Cl)c1 (stereo partly drawn) [Example 21, 2-Chloro-4-((3S)-8-(6-(3-((4-(3-((2,6-dioxopiperidin-3-yl)amino)phenyl)piperidin-1-yl)methyl)azetidine-1-carbonyl)pyridazin-3-yl)-3-methyl-2,8-diazaspiro[4.5]decan-2-yl)benzonitrile]	0.5 nM	94%	16 nM	60%	
C[C@H]1CC2(CCN(c3ccc(C(=O)N4CCC5(CC4)CC(N4CCN(c6ccc(N7CCC(=O)NC7=O)cc6)CC4)C5)cn3)CC2)CN1c1ccc(C#N)c(Cl)c1 [Example 33, (S)-2-Chloro-4-(8-(5-(2-(4-(4-(2,4-dioxotetrahydropyrimidin-1(2H)-yl)phenyl)piperazin-1-yl)-7-azaspiro[3.5]nonane-7-carbonyl)pyridin-2-yl)-3-methyl-2,8-diazaspiro[4.5]decan-2-yl]benzonitrile]	2.5 nM	95%	3.5 nM	58%	
C[C@H]1CC2(CCN(c3ccc(C(=O)N4CCC(CN5CCN(c6cccc(NC7CCC(=O)NC7=O)c6)CC5)CC4)c(F)c3)CC2)CN1c1ccc(C#N)c(Cl)c1 (stereo partly drawn) [Example 16, 2-Chloro-4-((3S)-8-(4-(4-((4-(3-((2,6-dioxopiperidin-3-yl)amino)phenyl)piperazin-1-yl)methyl)piperidine-1-carbonyl)-3-fluorophenyl)-3-methyl-2,8-diazaspiro[4.5]decan-2-yl)benzonitrile]		97%	84 nM	70%	3.9 nM
Cc1c(N2CCC3(CCN(c4ccc(C(=O)N5CCC(CN6CCN(c7cccc(NC8CCC(=O)NC8=O)c7)CC6)CC5)cc4)CC3)C2)ccc(C#N)c1Cl (racemic) [Example 38, (±)-2-Chloro-4-(8-(4-(4-((4-(3-((2,6-dioxopiperidin-3-yl)amino)phenyl)piperazin-1-yl)methyl)piperidine-1-carbonyl)phenyl)-2,8-diazaspiro[4.5]decan-2-yl)-3-methylbenzonitrile]	11.7 nM	96%	49 nM	60%	
C[C@H]1CC2(CCN(c3ccc(C(=O)N4CCN(CC5CCN(c6cccc(NC7CCC(=O)NC7=O)c6)CC5)CC4)cc3)CC2)CN1c1ccc(C#N)c(Cl)c1 (stereo partly drawn) [Example 37, 2-Chloro-4-((3S)-8-(4-(4-((1-(3-((2,6-dioxopiperidin-3-yl)amino)phenyl)piperidin-4-yl)methyl)piperazine-1-carbonyl)phenyl)-3-methyl-2,8-diazaspiro[4.5]decan-2-yl)benzonitrile]	7.6 nM	97%	125 nM	73%	
C[C@H]1CC2(CCN(c3ccc(C(=O)N4CCC(N5CCN(c6ccc(C(=O)NC7CCC(=O)NC7=O)nc6)CC5)CC4)cc3)CC2)CN1c1ccc(C#N)c(Cl)c1 (stereo partly drawn) [Example 2, 5-(4-(1-(4-((S)-2-(3-Chloro-4-cyanophenyl)-3-methyl-2,8-diazaspiro[4.5]decan-8-yl)benzoyl)piperidin-4-yl)piperazin-1-yl)-N-(2,6-dioxopiperidin-3-yl)picolinamide]		90%	164 nM	62%	5.1 nM
C[C@H]1CC2(CCN(c3ccc(C(=O)N4CCC(CN5CCC(c6cccc(NC7CCC(=O)NC7=O)c6)CC5)CC4)cc3)CC2)CN1c1ccc(C#N)c(Cl)c1 (stereo partly drawn) [Example 19, 2-Chloro-4-((3S)-8-(4-(4-((4-(3-((2,6-dioxopiperidin-3-yl)amino)phenyl)piperidin-1-yl)methyl)piperidine-1-carbonyl)phenyl)-3-methyl-2,8-diazaspiro[4.5]decan-2-yl)benzonitrile]	1.8 nM	96%	60 nM	68%	
C[C@H]1CC2(CCN(c3ccc(C(=O)N4CCC(CN5CCN(c6ccccc6NC6CCC(=O)NC6=O)CC5)CC4)cc3)CC2)CN1c1ccc(C#N)c(Cl)c1 (stereo partly drawn) [Example 39, 2-Chloro-4-((3S)-8-(4-(4-((4-(2-((2,6-dioxopiperidin-3-yl)amino)phenyl)piperazin-1-yl)methyl)piperidine-1-carbonyl)phenyl)-3-methyl-2,8-diazaspiro[4.5]decan-2-yl)benzonitrile]	13.9 nM	86%			
C[C@H]1CC2(CCN(c3ccc(C(=O)N4CCC(CN5CCN(c6ccc(C(=O)NC7CCC(=O)NC7=O)cc6)CC5)CC4)cc3)CC2)CN1c1ccc(C#N)c(Cl)c1 (stereo partly drawn) [Example 43, 4-(4-((1-(4-((S)-2-(3-Chloro-4-cyanophenyl)-3-methyl-2,8-diazaspiro[4.5]decan-8-yl)benzoyl)piperidin-4-yl)methyl)piperazin-1-yl)-N-(2,6-dioxopiperidin-3-yl)benzamide]	9.3 nM	92%			

Source: patent US20250129074A1, “CHIMERIC COMPOUND FOR TARGETED DEGRADATION OF ANDROGEN RECEPTOR PROTEIN, PREPARATION METHOD THEREFOR, AND MEDICAL USE THEREOF” (Jiangsu Hengrui Pharmaceuticals Co., Ltd., priority 2021, published 2025)
